Assays:
Assay type in all cases: cell-based
[1] = tested on: MS751 cells; assay: MTT cell proliferation assay, MS751 cells; conditions: Homo sapiens, incubation approximately 64-72 hours
Protocol: (§1) The MTT cell proliferation assay was used to study the cytotoxic properties of the compounds. The assay was performed according to the method described by Roche Molecular Biochemicals, with minor modifications. The assay is based on the cleavage of the tetrazolium salt, MTT, in the presence of an electron-coupling reagent. The water-insoluble formazan salt produced must be solubilized in an additional step. Cells grown in a 96-well tissue culture plate were incubated with the MTT solution for approximately 4 hours. After this incubation period, a water-insoluble formazan dye formed. After solubilization, the formazan dye was quantitated using a scanning multi-well spectrophotometer (ELISA reader). […] The cells were seeded at 5,000-10,000 cells in each well of 96-well plate in 100 μL of fresh culture medium and were allowed to attach overnight. The stock solutions of the compounds were diluted in 100 μL cell culture medium to obtain eight concentrations of each test compound, ranging from 1 nM to 30 μM. […] All optical densities were measured at 490 nm using a Vmax Kinetic Microplate Reader (Molecular Devices). In most cases, the assay was performed in duplicate and the results were presented as a mean percent inhibition to the negative control±SE. The following formula was used to calculate the percent of inhibition. Inhibition (%)=(1−(ODo/OD))×100.
(§2) The compounds were tested against MS751, Z138 and 3T3 cells. The MS751 cell line is derived from a metastasis to lymph node of human cervix from a patient diagnosed with squameous cell carcinoma of the cervix. The […] cell line is a mature B-cell acute lymphoblastic leukemia cell line derived from a patient with chronic lymphocytic leukemia. 3T3 cells are standard fibroblast cells; they were originally isolated from Swiss mouse embryo tissue.

[2] = tested on: Z138 cells; assay: MTT cell proliferation assay, Z138 cells; conditions: Homo sapiens, Z-138, incubation approximately 64-72 hours
Protocol: as §1, §2

[3] = tested on: 3T3 cells; assay: MTT cell proliferation assay, 3T3 cells; conditions: Mus musculus, NIH3T3; 3T3 fibroblast cells; incubation approximately 64-72 hours
Protocol: as §1, §2

SMILES: CC(=O)c1ccc(-c2ccc(OC(C)(C)CNC(=O)/C=C/c3cccnc3)c(Cl)c2)s1 [Compound 323, (E)-N-(2-(4-(5-acetylthiophen-2-yl)-2-chlorophenoxy)-2-methylpropyl)-3-(pyridin-3-yl)acrylamide]
- IC50 [1]: 5000 to 10000 nM
- IC50 [2]: 100 to 5000 nM
- IC50 [3]: > 10000 nM

SMILES: CN(C)C(=O)c1ccc(-c2ccc(OCCNC(=O)/C=C/c3ccc(N)nc3)c(Cl)c2)cc1 [Compound 325, (E)-4′-(2-(3-(6-aminopyridin-3-yl)acrylamido)ethoxy)-3′-chloro-N,N-dimethylbiphenyl-4-carboxamide]
- IC50 [1]: 100 to 5000 nM
- IC50 [2]: 100 to 5000 nM
- IC50 [3]: > 10000 nM

SMILES: Nc1ccc(/C=C/C(=O)NCCOc2ccc(-c3ccc(C(=O)N4CCNCC4)cc3)cc2Cl)cn1 [Compound 326, (E)-3-(6-aminopyridin-3-yl)-N-(2-(3-chloro-4′-(piperazine-1-carbonyl)biphenyl-4-yloxy)ethyl)acrylamide]
- IC50 [1]: < 100 nM
- IC50 [2]: < 100 nM
- IC50 [3]: 100 to 5000 nM

SMILES: CC(=O)c1ccc(-c2ccc(OCCNC(=O)/C=C\c3cccnc3)c(Cl)c2)s1 [Compound 327, (Z)—N-(2-(4-(5-acetylthiophen-2-yl)-2-chlorophenoxy)ethyl)-3-(pyridin-3-yl)acrylamide]
- IC50 [1]: 5000 to 10000 nM
- IC50 [2]: 100 to 5000 nM
- IC50 [3]: > 10000 nM

SMILES: Nc1ccc(/C=C/C(=O)NCCOc2ccc(-c3cnc(C(=O)N4CCOCC4)nc3)cc2Cl)cn1 [Compound 328, (E)-3-(6-aminopyridin-3-yl)-N-(2-(2-chloro-4-(2-(morpholine-4-carbonyl)pyrimidin-5-yl)phenoxy)ethyl)acrylamide]
- IC50 [1]: 100 to 5000 nM
- IC50 [2]: 100 to 5000 nM
- IC50 [3]: > 10000 nM

SMILES: Nc1ccc(/C=C/C(=O)NCCOc2ccc(-c3ccc(C(=O)N4CCCCC4)cc3)cc2Cl)cn1 [Compound 329, (E)-3-(6-aminopyridin-3-yl)-N-(2-(3-chloro-4′-(piperidine-1-carbonyl)biphenyl-4-yloxy)ethyl)acrylamide]
- IC50 [1]: < 100 nM
- IC50 [2]: < 100 nM
- IC50 [3]: > 10000 nM

SMILES: CC(=O)c1ccc(-c2ccc(OCCNC(=O)/C=C/c3ccc(N)nc3)c(Cl)n2)s1 [Compound 330, (E)-N-(2-(6-(5-acetylthiophen-2-yl)-2-chloropyridin-3-yloxy)ethyl)-3-(6-aminopyridin-3-yl)acrylamide]
- IC50 [1]: 100 to 5000 nM
- IC50 [2]: 100 to 5000 nM
- IC50 [3]: > 10000 nM

SMILES: CC(=O)c1ccc(-c2cnc(OCCNC(=O)/C=C/c3ccc(N)nc3)c(Cl)c2)s1 [Compound 331, (E)-N-(2-(5-(5-acetylthiophen-2-yl)-3-chloropyridin-2-yloxy)ethyl)-3-(6-aminopyridin-3-yl)acrylamide]
- IC50 [1]: > 10000 nM
- IC50 [2]: > 10000 nM
- IC50 [3]: > 10000 nM

SMILES: Nc1ccc(/C=C/C(=O)NCCOc2cc(Cl)cc(-c3ccc(C(=O)N4CC(F)(F)C4)cc3)c2)cn1 [Compound 332, (E)-3-(6-aminopyridin-3-yl)-N-(2-(5-chloro-4′-(3,3-difluoroazetidine-1-carbonyl)biphenyl-3-yloxy)ethyl)acrylamide]
- IC50 [1]: < 100 nM
- IC50 [2]: < 100 nM
- IC50 [3]: 100 to 5000 nM

SMILES: CC(C)(CNC(=O)/C=C/c1ccc(N)nc1)Oc1ccc(-c2ccc(C(=O)N3CC(F)(F)C3)cc2)cc1Cl [Compound 333, (E)-3-(6-aminopyridin-3-yl)-N-(2-(3-chloro-4′-(3,3-difluoroazetidine-1-carbonyl)biphenyl-4-yloxy)-2-methylpropyl)acrylamide]
- IC50 [1]: 100 to 5000 nM
- IC50 [2]: 100 to 5000 nM
- IC50 [3]: > 10000 nM

SMILES: CN(CCOc1ccc(-c2ccc(C(=O)N3CC(F)(F)C3)cc2)cc1Cl)C(=O)/C=C/c1ccc(N)nc1 [Compound 334, (E)-3-(6-aminopyridin-3-yl)-N-(2-(3-chloro-4′-(3,3-difluoroazetidine-1-carbonyl)biphenyl-4-yloxy)ethyl)-N-methylacrylamide]
- IC50 [1]: 100 to 5000 nM
- IC50 [2]: < 100 nM
- IC50 [3]: 5000 to 10000 nM

SMILES: CC1(C)COCCN1C(=O)c1ccc(-c2ccc(OCCNC(=O)/C=C/c3ccc(N)nc3)c(Cl)c2)cc1 [Compound 335, (E)-3-(6-aminopyridin-3-yl)-N-(2-(3-chloro-4′-(3,3-dimethylmorpholine-4-carbonyl)biphenyl-4-yloxy)ethyl)acrylamide]
- IC50 [1]: < 100 nM
- IC50 [2]: < 100 nM
- IC50 [3]: 100 to 5000 nM

SMILES: Nc1ccc(/C=C/C(=O)NCCCOc2ccc(-c3ccc(C(=O)N4CC(F)(F)C4)cc3)cc2Cl)cn1 [Compound 336, (E)-3-(6-aminopyridin-3-yl)-N-(3-(3-chloro-4′-(3,3-difluoroazetidine-1-carbonyl)biphenyl-4-yloxy)propyl)acrylamide]
- IC50 [1]: < 100 nM
- IC50 [2]: < 100 nM
- IC50 [3]: 100 to 5000 nM

SMILES: Nc1ccc(/C=C/C(=O)NCCS(=O)(=O)c2ccc(-c3ccc(C(=O)N4CC(F)(F)C4)cc3)cc2Cl)cn1 [Compound 337, (E)-3-(6-aminopyridin-3-yl)-N-(2-(3-chloro-4′-(3,3-difluoroazetidine-1-carbonyl)biphenyl-4-ylsulfonyl)ethyl)acrylamide]
- IC50 [1]: > 10000 nM
- IC50 [2]: > 10000 nM
- IC50 [3]: > 10000 nM

SMILES: Nc1ccc(/C=C/C(=O)NCCOc2ccc(-c3ccc(C(=O)N4CC(F)(F)C4)cc3)cc2C(F)(F)F)cn1 [Compound 338, (E)-3-(6-aminopyridin-3-yl)-N-(2-(4′-(3,3-difluoroazetidine-1-carbonyl)-3-(trifluoromethyl)biphenyl-4-yloxy)ethyl)acrylamide]
- IC50 [1]: < 100 nM
- IC50 [2]: < 100 nM
- IC50 [3]: < 100 nM

SMILES: Nc1ccc(/C=C/C(=O)NCCOc2ccc(-c3ccc(C(=O)N4CCOCC4)cc3)cc2C(F)(F)F)cn1 [Compound 339, (E)-3-(6-aminopyridin-3-yl)-N-(2-(4′-(morpholine-4-carbonyl)-3-(trifluoromethyl)biphenyl-4-yloxy)ethyl)acrylamide]
- IC50 [1]: < 100 nM
- IC50 [2]: < 100 nM
- IC50 [3]: 100 to 5000 nM

SMILES: CC(C)(CNC(=O)/C=C/c1ccc(N)nc1)Oc1ccc(F)c(-c2ccc(C(=O)N3CCOCC3)cc2)c1 [Compound 340, (E)-3-(6-aminopyridin-3-yl)-N-(2-(6-fluoro-4′-(morpholine-4-carbonyl)biphenyl-3-yloxy)-2-methylpropyl)acrylamide]
- IC50 [1]: 100 to 5000 nM
- IC50 [2]: < 100 nM
- IC50 [3]: > 10000 nM

SMILES: [2H]C([2H])(CNC(=O)/C=C/c1ccc(N)nc1)Oc1ccc(-c2ccc(C(=O)N3CCOCC3)cc2)cc1Cl [Compound 342, (E)-3-(6-aminopyridin-3-yl)-N-(2,2-dideutero-2-(3-chloro-4′-(morpholine-4-carbonyl)biphenyl-4-yloxy)ethyl)acrylamide]
- IC50 [1]: < 100 nM
- IC50 [2]: < 100 nM
- IC50 [3]: 100 to 5000 nM

SMILES: [2H]C([2H])(CNC(=O)/C=C/c1ccc(N)nc1)Oc1ccc(F)c(-c2ccc(C(=O)N3CCOCC3)cc2)c1 [Compound 343, (E)-3-(6-aminopyridin-3-yl)-N-(2,2-dideutero-2-(6-fluoro-4′-(morpholine-4-carbonyl)biphenyl-3-yloxy)ethyl)acrylamide]
- IC50 [1]: 100 to 5000 nM
- IC50 [2]: 100 to 5000 nM
- IC50 [3]: > 10000 nM

SMILES: Nc1ccc(/C=C/C(=O)NCCOc2cc(Cl)cc(-c3ccc(C(=O)N4CCOCC4)cc3)c2)cn1 [Compound 344, (E)-3-(6-aminopyridin-3-yl)-N-(2-(5-chloro-4′-(morpholine-4-carbonyl)biphenyl-3-yloxy)ethyl)acrylamide]
- IC50 [1]: < 100 nM
- IC50 [2]: < 100 nM
- IC50 [3]: 100 to 5000 nM

SMILES: Nc1ccc(/C=C/C(=O)NCCCOc2cc(Cl)cc(-c3ccc(C(=O)N4CCOCC4)cc3)c2)cn1 [Compound 345, (E)-3-(6-aminopyridin-3-yl)-N-(3-(5-chloro-4′-(morpholine-4-carbonyl)biphenyl-3-yloxy)propyl)acrylamide]
- IC50 [1]: < 100 nM
- IC50 [2]: < 100 nM
- IC50 [3]: 100 to 5000 nM

SMILES: CC(C)(CNC(=O)/C=C/c1ccc(N)nc1)Oc1cc(Cl)cc(-c2ccc(C(=O)N3CCOCC3)cc2)c1 [Compound 347, (E)-3-(6-aminopyridin-3-yl)-N-(2-(5-chloro-4′-(morpholine-4-carbonyl)biphenyl-3-yloxy)-2-methylpropyl)acrylamide]
- IC50 [1]: 100 to 5000 nM
- IC50 [2]: < 100 nM
- IC50 [3]: > 10000 nM

SMILES: Nc1ccc(/C=C/C(=O)NCCCOc2ccc(-c3ccc(C(=O)N4CCOCC4)cc3)cc2Cl)cn1 [Compound 348, (E)-3-(6-aminopyridin-3-yl)-N-(3-(3-chloro-4′-(morpholine-4-carbonyl)biphenyl-4-yloxy)propyl)acrylamide]
- IC50 [1]: < 100 nM
- IC50 [2]: < 100 nM
- IC50 [3]: 100 to 5000 nM

SMILES: Nc1ccc(/C=C/C(=O)NCC(F)(F)COc2ccc(-c3ccc(C(=O)N4CCOCC4)cc3)cc2Cl)cn1 [Compound 349, (E)-3-(6-aminopyridin-3-yl)-N-(3-(3-chloro-4′-(morpholine-4-carbonyl)biphenyl-4-yloxy)-2,2-difluoropropyl)acrylamide]
- IC50 [1]: < 100 nM
- IC50 [2]: < 100 nM
- IC50 [3]: 100 to 5000 nM

Reference: patent US9994558B2, “Multicyclic compounds and methods of using same” (Karyopharm Therapeutics Inc., priority 2013, dated 2018)
